Measurements: EPA's CvTdb concentration-time database (doi:10.1093/toxsci/kfy020)

Experiments:
Test in all cases: concentration in plasma after dosing
rat [1] = conditions: Sprague-Dawley
rat [2] = conditions: dosed: Boscalid, 1.0000000000 mg/kg, iv, male, Sprague-Dawley
rat [3] = conditions: dosed: Boscalid, 5.0000000000 mg/kg, oral, male, Sprague-Dawley
rat [4] = conditions: dosed: Boscalid, 5.0000000000 mg/kg, oral, male, Sprague-Dawley; remark: listed apart in the source
rat [5] = conditions: dosed: Boscalid, 5.0000000000 mg/kg, oral, male, Sprague-Dawley; remark: listed apart in the source
rat [6] = conditions: dosed: Boscalid, 1.0000000000 mg/kg, iv, male, Sprague-Dawley; remark: listed apart in the source
rat [7] = conditions: dosed: 2,4-D, 0.20467 mg/kg, iv, male, Sprague-Dawley
rat [8] = conditions: dosed: 2,4-D, 0.20467 mg/kg, iv, male, Sprague-Dawley; remark: listed apart in the source
rat [9] = conditions: dosed: 2,4-D, 1.043 mg/kg, oral, male, Sprague-Dawley
rat [10] = conditions: dosed: 2,4-D, 1.043 mg/kg, oral, male, Sprague-Dawley; remark: listed apart in the source
rat [11] = conditions: dosed: Pyrithiobac sodium, 1.037 mg/kg, oral, male, Sprague-Dawley
rat [12] = conditions: dosed: Pyrithiobac sodium, 1.037 mg/kg, oral, male, Sprague-Dawley; remark: listed apart in the source
rat [13] = conditions: dosed: Nilvadipine, 10.0000000000 mg/kg, oral, male, Sprague-Dawley

O=C(Nc1ccccc1-c1ccc(Cl)cc1)c1cccnc1Cl [Boscalid]
concentration in plasma [ng/mL], rat [1], dosed: Boscalid, male
Conditions | 0.25 h | 0.5 h | 1 h | 2 h | 4 h | 5 min | 8 h | 10 min | 12 h
1.0000000000 mg/kg, iv | – | 131 | 78 | 29.4 | 9.3 | 418 | – | 293 | –
5.0000000000 mg/kg, oral | 47.3 | 81.4 | 65.2 | 24.6 | 13.6 | – | 15.9 | – | 7.5

concentration in plasma [ng/mL]
Conditions | 0.25 h | 0.5 h | 1 h | 2 h | 4 h | 5 min | 8 h | 10 min | 12 h
rat [2] | – | 100 | 57.6 | 23.1 | 12.5 | 366 | 6.72 | 262 | –
rat [3] | 29.9 | 36.8 | 18.6 | 14.1 | 5.5 | – | – | – | 8.6
rat [4] | 30.5 | 43.1 | 31.9 | 11.5 | 8.5 | – | 16.1 | – | 21.1
rat [5] | 16.7 | 22.5 | 28.9 | 30.9 | 20.2 | – | 22.3 | – | 10.1
rat [6] | – | 146 | 71.5 | 28.4 | 10.8 | 516 | – | 325 | –

O=C(O)COc1ccc(Cl)cc1Cl [2,4-D]
concentration in plasma [ng/mL], rat [1], dosed: 2,4-D, male
Conditions | 0.167 h | 0.25 h | 0.5 h | 1 h | 2 h | 4 h | 5 min | 8 h | 24 h
0.20467 mg/kg, iv | 466 | – | 192 | 71.5 | 22 | 1.84 | 710 | – | –
1.043 mg/kg, oral | – | 1030 | 1030 | 566 | 492 | 154 | – | 412 | 0.0594

concentration in plasma [ng/mL]
Conditions | 0.167 h | 0.25 h | 0.5 h | 1 h | 2 h | 4 h | 5 min | 8 h | 24 h
rat [7] | 250 | – | 79.7 | 32.3 | 30.8 | 7.75 | 461 | – | –
rat [8] | 616 | – | 219 | 75.8 | 9.23 | 0.324 | 911 | – | –
rat [9] | – | 1440 | 1240 | 816 | 858 | 688 | – | 504 | 0.48
rat [10] | – | 1200 | 690 | 417 | 764 | 743 | – | 402 | –

COc1cc(OC)nc(Sc2cccc(Cl)c2C(=O)[O-])n1.[Na+] [Pyrithiobac sodium]
concentration in plasma [ng/mL]
Conditions | 0.25 h | 0.5 h | 1 h | 2 h | 4 h | 8 h | 24 h
rat [11] | 1400 | 1190 | 1270 | 331 | 154 | 65.6 | 1.06
rat [12] | 1380 | 1560 | 1090 | 437 | 112 | 31.9 | 0.833

rat [1], dosed: Pyrithiobac sodium, 1.037 mg/kg, oral, male
Conditions | concentration in plasma [ng/mL]
0.25 h | 1080
0.5 h | 1060
1 h | 1190
2 h | 458
4 h | 126
8 h | 37
24 h | 0.55
72 h | 0.206

COC(=O)C1=C(C#N)NC(C)=C(C(=O)OC(C)C)C1c1cccc([N+](=O)[O-])c1 (stereo not given) [Nilvadipine]
rat [13]
Conditions | concentration in plasma [ng/mL]
0.25 h | 271
0.5 h | 160
1 h | 75.8
2 h | 99.2
4 h | 27.8
6 h | 22.1
8 h | 15
10 h | 1.26

concentration in plasma [ng/mL], rat [1], dosed: Nilvadipine
Conditions | 0.25 h | 0.5 h | 1 h | 2 h | 4 h | 5 min | 6 h | 8 h | 10 h
0.1000000000 mg/kg, iv, female | 16 | 8 | 4.43 | 2.48 | 0.674 | 27.3 | – | – | –
0.1000000000 mg/kg, iv, male | 11.8 | 7.16 | 3.5 | 2.19 | 0.824 | 29.2 | 0.387 | – | –
10.0000000000 mg/kg, oral, male | 34.6 | 44.3 | 14.6 | 10.7 | 3.01 | – | 4.89 | 2.84 | 12.2
